Test results: publication PMC9181887, “In Vitro Antithrombotic, Hematological Toxicity, and Inhibitor Studies of Protocatechuic, Isovanillic, and p-Hydroxybenzoic Acids from Maclura tricuspidata (Carr.) Bur” (Molecules, 2022)
Read-outs that look alike come from different tables or passages of the source.

Tests used:
erythrocytes = test: Hematological study, erythrocyte count by hemocytometer; type: cell-based; conditions: up to 200 μg/mL, 10 min, vs control
Description: Figure 1 Blood cytotoxic effect of PA (A), IVA (B), and 4-HA (C). Aliquots of washed platelets (10^3/mL), erythrocytes (10^6/mL), and leukocytes (10^3/mL) were treated with or without the compounds for 10 min and cell number was determined by hemocytometer counts. Each value is the mean ± SD of triplicate measurements. * p < 0.05 and ** p < 0.01, compared to each control groups. 10–500, 10–100 μg of each compound treated.
Total white blood cells (leukocytes) and red blood cells (erythrocytes) were counted using a hemocytometer, as previously described. Blood was diluted 1:200 with Hayem’s fluid and the cells were counted in a loaded hemocytometer chamber. To count the blood platelets, blood was diluted in a ratio of 1:20 with a diluting fluid, and four large (1 mm^2) corner squares of the hemocytometer were counted under a light microscope. Aliquots of leukocytes (0.1 mL; 10^3/mL), erythrocytes (0.1 mL; 10^6/mL), and platelets (0.1 mL; 10^3/mL) were treated with or without the compounds for 10 min.

human plasma [1] = test: Coagulation assay, PT; type: biochemical; conditions: 50–100 μg
Description: (§1) A coagulation assay was performed to evaluate the prolongation potential of the compounds in blood coagulation by measuring APTT, PT, and TT, as previously described. After pretreatment of the compounds with human plasma for 10 min, APTT, PT, and TT were determined by a coagulometer (Thrombostat 1) manufactured by Behnk Elektronik, Germany.

human plasma [2] = test: Coagulation assay, TT; type: biochemical; conditions: 50–100 μg
Description: as §1

platelet aggregation [3] = system: platelet aggregation; design: method as in PMID 20824965, PMID 9869276; conditions: sodium arachidonate-induced platelet aggregation; cited from earlier work
platelet aggregation [4] = system: platelet aggregation; design: method as in PMID 20824965, PMID 9869276; conditions: ADP or collagen-induced platelet aggregation; cited from earlier work
diabetic rats = system: diabetic rats; design: method as in PMID 20824965, PMID 9869276; conditions: cited from earlier work

Structure (SMILES) | effect on the number of erythrocytes (erythrocytes) | PT, fold of control (human plasma [1]) | prothrombin time (PT) (human plasma [1]; control 20.8 ± 0.7 s, p < 0.05) [s] | TT, fold of control (human plasma [2]) | thrombin time (TT) (human plasma [2]; control 9.4 ± 0.2 s, p < 0.01) [s] | IC50 (platelet aggregation [3]) [µM] | IC50 (platelet aggregation [4]) [µM] | plasma glucose levels (diabetic rats)
COc1ccc(C(=O)O)cc1O [IVA, isovanillic acid] | did not show any effect | – | – | – | – | – | – | –
O=C(O)c1ccc(O)c(O)c1 [PA, protocatechuic acid] | did not show any effect | – | – | – | – | – | – | –
O=C(O)c1ccc(O)cc1 [4-HA, 4-hydroxybenzoic acid] | – | 1.25–1.26 fold | 25.9 to 26.2 | 1.14–1.15 fold | 10.7 to 10.8 | 300 | 1000 to 3400 | reducing plasma glucose levels in a dose-dependent manner
